Test results taken from a melting point compilation (Tetko et al.; mined from patent text by program, amines drawn as free bases though some values may be those of a salt).

Compound | melting point
CCCCCCCCCCCCCCc1ccc(OCC(CO)OCc2ccccc2)c(CCCCCC)c1 (stereo not given) | 32 to 33 °C
CCP(=O)(O)c1cc(Oc2ccc(C(F)(F)F)cc2Cl)ccc1[N+](=O)[O-] | 99 °C
O=C(CCc1cc(Br)c(OC(=O)c2c3ccccc3nc3ccccc23)c(Br)c1)ON1C(=O)CCC1=O | 175 to 176 °C
N#Cc1c(Cl)c[nH]c1-c1ccc(Cl)cc1 | 251 to 254 °C
OC/C=C/c1ccc(O)c(OCc2ccccc2)c1 | 99 to 101 °C
CCOC(=O)c1nn(-c2ccccc2)c2c1CCCC2 | 102 to 103 °C
CN(C=O)c1ccc(Cl)cc1C(=O)c1ccccc1 | 93.5 to 94.5 °C
CCCCc1nc(Cl)c(C(=O)O)n1Cc1ccc(-c2ccccc2-c2c(O)c(=O)c2=O)cc1 | 168 °C
O=C(c1ccccc1)c1cc(Cl)ccc1-n1cnnc1CN1C(=O)c2ccccc2C1=O | 229 to 230 °C
CCN(CC)OC(=O)c1cc(C(C)(C)C)c(O)c(C(C)(C)C)c1 | 129 to 137 °C
Cc1oc(-c2ccccc2)nc1COc1ccc(CON=C(CCCCCCC(=O)O)c2ccc(F)cc2)cc1 | 56 to 57 °C
CN(CC(F)(F)F)C(=O)COc1nc2ccccc2o1 | 92 °C
CCCCNC(=O)CC(F)=C(F)F | 34 to 36 °C
CCOCc1nc2c(N)nc(C)cc2n1CCCCNC(=O)C(C)C | 170 to 172 °C
CC1=C(C(=O)OCc2ccccc2)C2CCC(CCOC(=O)c3ccc(Br)cc3)N2C(=NC(=O)c2ccc(Br)cc2)N1 (stereo not given) | 175 to 176 °C
CSc1c(-c2ccccc2)[nH]c2ccccc12 | 103 °C
O=C(O)c1cnc2c(F)c(F)ccc2c1 | 275 °C
COC=Nc1c(C#N)c(C)nn1-c1c(Cl)cc(C(F)(F)F)cc1Cl | 75 to 78 °C
OC1CCN(c2ccncc2)CC1 | 155 to 156 °C
N#Cc1ccccc1-c1cccc(-n2cnc3cc(-c4cnco4)ccc32)c1 | 222 to 226 °C
CCOC(=O)CCCCCCCCCCCNC(=O)c1cc(OCc2ccccc2)ccc1OCc1ccccc1 | 70 to 71 °C
COCOc1c(C)cc(-c2ccc(C(=O)NCCOc3ccc(CC(Oc4ccccc4)C(=O)O)cc3)cc2)cc1C (stereo not given) | 142 to 143 °C
N#Cc1ccc(OCCCOc2cccc(-c3cc4cc(C#N)ccc4o3)c2)cc1 | 157 to 158 °C

Compound | melting point
O=c1cc(-c2ccccc2)c2c(O)cc(O)cc2o1 | 179 to 182 °C
CN1C(=O)C2CC(c3ccccc3)(C2)C1=O | 175 to 176 °C
OCc1cc(N2CCCCC2)ncn1 | 70 to 72 °C
NC1=Nc2cc(Cl)ccc2Nc2cscc21 | 239 to 240 °C
Cc1c(N2CCC(O)CC2)c(F)cc2c(=O)c(C(=O)O)cn(C3CC3)c12 | 234 to 236 °C
CC(CNCC(O)c1ccccc1)OCc1ccccc1 (stereo not given) | 90 to 100 °C
COc1ccc(COc2ccc(N)cc2)cc1 | 118 to 120 °C
COc1ccc(C2CNC(=O)C2)cc1C1CCCC1 (stereo not given) | 139 °C
CNC(=S)C1(c2cccc(C)n2)CCCO1 (stereo not given) | 151 °C
C=C[C@H]1OC(C)(C)O[C@@H](CC(=O)OCc2ccccc2)[C@H]1NC(=O)OCc1ccccc1 (relative stereo) | 39 to 40.8 °C
O=C1CCc2cc(Cl)cc(Cl)c21 | 119 to 120 °C
CC(=O)N(C)c1ccc(Cl)c(COc2cccn3c(Br)c(C)nc23)c1Cl | 201 to 204 °C
COC(=O)c1ccc(I)c(O)c1 | 153 °C
O=C(Nc1ccc(-n2ccnc2)cc1)Nc1ccc(C(F)(F)F)cc1 | 209 to 213 °C
Cc1cccc(-n2nnc3cccnc32)n1 | 144 to 145 °C
COc1cc(Br)c2nc(-c3ccc(OC)c(F)c3)cc(O)c2c1 | 200 to 201 °C
C=CCCC(C#N)(C#N)Cc1ccc(OCC(F)(F)F)cc1 | 58 °C
O=C(O)C=Cc1ccc2ccccc2c1 | 207 to 208 °C
O=C(O)C1c2ccccc2COc2cc(Br)ccc21 (stereo not given) | 217 to 218 °C
CC(C)C[C@H](NC(=O)N1CCCCCC1)C(=O)O | 88 to 89 °C
Cc1c(N=C2NCCN2)cccc1N(C)C | 116 to 118 °C
O=C(CC(c1ccccc1)c1ccccc1)NCO | 149 to 151 °C
CCCc1c(O)c(C(=O)O)cc(Cl)c1OCCCCCCc1cccc(O)c1O | 110 to 113 °C

Compound | melting point
CC(=O)OCc1c(C(=O)C(=O)O)c2cc(OCc3ccccc3)ccc2n1Cc1ccc(C(C)(C)C)cc1 | 145 to 146 °C
COC=C1C(=O)NC(=O)c2ccccc21 | 260 to 261 °C
CCCCCCCCc1ccc(CCC(C)(CCOC(C)=O)NC(C)=O)cc1 (stereo not given) | 137 to 141 °C
O=[N+]([O-])c1ccc2c(c1)NP(=O)(N(CCCl)CCCl)OC2 (stereo not given) | 138 to 142 °C
COc1cccc(OC(=O)c2ncn3c2[C@@H]2CCCN2C(=O)c2c(Cl)cccc2-3)c1 | 184 to 185 °C
COC(=O)c1c(-c2ccc(C(F)(F)F)cc2)ccc2ccccc12 | 74 to 76 °C
O=C(N[C@H](Cc1ccccc1)C(=O)O)OCc1cc2cc(-c3ccsc3)ccc2o1 | 169 to 170 °C
NS(=O)(=O)NC(=O)CCCCC1CCSS1 (stereo not given) | 141 to 142 °C
COC(=O)c1c[nH]c(-c2ccc(OC)cc2)n1 | 188 to 190 °C
O=C(Nc1ccc(Oc2ccc(C(F)(F)F)cc2)cc1)Nc1nonc1-c1ccc(Cl)cc1 | 208 °C
COC(=O)CCCNC(=O)C(COS(C)(=O)=O)NS(=O)(=O)c1ccc(Cl)cc1 (racemic) | 95 to 99 °C
CC(C)(c1ccc(Oc2ccc([N+](=O)[O-])cc2F)cc1)c1cccc(C(C)(C)c2ccc(Oc3ccc([N+](=O)[O-])cc3F)cc2)c1 | 151 to 152 °C
CCCS(=O)(=O)c1c(S(N)(=O)=O)c(C)nn1C | 127 to 129 °C
CCCCCCCCCCCCCCCCCCC1CC(=O)N(c2ccc([N+](=O)[O-])cc2O)C1=O (stereo not given) | 115 to 120 °C
CN(CCCN)CC(O)C(O)C(O)C(O)CO (stereo not given) | 106 °C
COC(=O)C(OC)(OC)c1ccccc1Br | 55 °C
C=CCOc1ccc(-c2cc3ccccc3[nH]2)cc1 | 214 °C
CC1CNC(=Nc2ccccc2N2CCOCC2)N1 (stereo not given) | 173 to 174 °C
Cc1c(CCC(=O)O)n(Cc2ccc(-n3ccnc3)cc2)c2ccc(F)cc12 | 222 °C
CCOC(=O)C(Cc1c(Br)c(OC)c(OC)c(OC)c1OC)(C(=O)OCC)c1ccc(OCc2ccccc2)cc1 | 93 to 94 °C
O=c1c2cnc(Cl)cc2[nH]c2ccnn12 | > 300 °C
COc1ccc(C2Sc3cccc4cccc(c34)N(CCN(C)C)C(=O)C2OC(C)=O)cc1 (stereo not given) | 111 to 112 °C

Results, then the compound that gave them:

melting point | Compound
55 to 57 °C | CC#CCOc1ccc(S(=O)(=O)N(C)C(C(=O)NO)C(C)(C)SCCN2CCCC2)cc1 (stereo not given)
95 to 97 °C | O=C(NCC1CCN(CC2COc3ccccc3O2)CC1)c1ccccn1 (stereo not given)
260 to 262 °C | CCCCc1ncc(Sc2ccccc2C(=O)O)n1Cc1ccc(C(=O)O)cc1
241 to 243 °C | C[C@@H](c1ccccc1)n1c(O)nc2c(N)nc3cccnc3c21
119 to 121 °C | Cc1cc2c(s1)CCCC1CC(=O)N(c3ccc(Cl)cc3)N=C21 (stereo not given)
158 to 160 °C | CCC(C)(C)N1CCNC(S(=O)(=O)Nc2ccc3[nH]c(C(=O)N4CCN(c5ncccc5NC(C)C)CC4)cc3c2)C1 (stereo not given)
218 to 220 °C | NC(=O)Cc1nc2ccnc(-c3cccc(C(F)(F)F)c3)n2n1
171 to 172 °C | Cc1cccnc1C(=O)c1[nH]c2cc(Cl)ccc2c1N
170 to 175 °C | CCP(=O)(OC)C(O)C(CC1CCCCC1)NC(=O)[C@H](CC(C)C)NC(=O)CCc1ccccc1 (stereo not given in full)
153 to 157 °C | c1ccc2cc3[nH]c(SCc4nccs4)nc3cc2c1
115 to 116 °C | CCC(O)(C(=O)NC(C)c1ccccc1)c1cc2n(c(=O)c1CO)CCC21OCCO1 (stereo not given)
312 to 314 °C | c1ccc(Nc2nc(NC3CCC3)c3[nH]cnc3n2)cc1
281 to 282 °C | CC(C)(C)c1ccc(C(=O)Nc2cn3nc(-n4cnc(Cl)c4Cl)ccc3n2)cc1
173 to 174 °C | CC(=O)Nc1cc2c(cc1C#N)C(Nc1ccc(C(=O)OC(C)(C)C)cc1)CC2 (stereo not given)
183 °C | Cn1cccc1-c1cc2cccnc2[nH]1
170 °C | CC(C)(C)OC(=O)Nc1ccc(-c2ccccc2F)cc1NC(=O)CC(=O)c1cc(C#N)ccc1F

melting point | Compound
172 to 175 °C | CCN(CC)C(=O)n1c(C(=O)C(C)(C)c2ccc(Cl)cc2)cc2cc(OC)ccc21
99 to 100 °C | Cc1c(C)c2c(c(C)c1N)CC(C)(CN1CCN(CCc3ccccc3)CC1)O2 (stereo not given)
76 to 78 °C | COc1ccc(C2=NN(C3CCN(C(=O)NC(C)(C)C)CC3)C(=O)CC2)cc1OC
158 to 159 °C | COc1cccc(-c2csc(N3CCN(C(=O)Nc4onc(C)c4C)CC3)n2)c1
110 °C | CC1(C)CC(NC(=O)CCC(C)(c2ccc(O)c(C(C)(C)C)c2)c2ccc(O)c(C(C)(C)C)c2)CC(C)(C)N1
145 to 149 °C | CCOC(=O)Cc1cccc(Oc2ccccc2Cl)c1NS(C)(=O)=O
218 °C | CC(C)(C)C1=NN(c2ccc(C(=O)O)cc2)C(c2cccc(F)c2)C1 (stereo not given)
225 to 227 °C | O=C(Nc1ccc(-n2nc(C(F)(F)F)cc2C(F)(F)F)cc1)Nc1ccc(Cl)cc1[N+](=O)[O-]
116 to 118 °C | Cc1ccccc1Nc1c(C(=O)C(C)C)cnc2c(CO)cccc12
208 to 209 °C | CC(C)(C)C(=O)Nc1ccc2oc3c(c2c1)CCCCC3
102 to 105 °C | CN(C)CCNC(=O)c1cc(S(C)(=O)=O)c(Cl)cc1NCc1ccco1
162 to 165 °C | C[C@@H]1S[C@@H](C(=O)N(C)c2ccc(CN3CCOCC3)cc2)Cc2cc3c(cc2C1=O)OCO3
64 to 65 °C | CC(C)CCNc1ccccc1NCC12CC3CC(CC(C3)C1)C2
150 to 153 °C | CN1CCN(c2nnc3c4ccccc4c(Cl)cn23)CC1
189 to 190 °C | CN1CCN(c2cccc3c2C[C@H](NC(=O)c2ccc(F)cc2)CC3)CC1
195 °C | O=S1(=O)c2cccc3cccc(c23)N1CCCCN1CCN(c2ccc(O)cc2)CC1
